According to patent publication US20170334899A1, “AMINO-SUBSTITUTED ISOTHIAZOLES” (Bayer Pharma Aktiengesellschaft, priority 2014, published 2017):
pIC50: −log10 of the molar value.

Key:
[1] = target: T1, CDK2/CycE (Homo sapiens, UniProt P24941); test: CDK2/CycE kinase assay (TR-FRET); format: biochemical; details: avg, read-out: CDK2 avg (IC50 [mol/l])
T1 construct: GST; purchased ProQinase GmbH (Freiburg, Germany); host or cells: insect cells (Sf9)
Outline: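 GST-tagged human CDK2 and CycE from Sf9 cells, preincubated 15 min with compound, then 25 min at 22° C. with 10 μM ATP and 0.75 μM biotinylated Rb-derived peptide (final). Phospho-substrate read by TR-FRET (anti-pRB pSer807/pSer811, Eu anti-mouse IgG, streptavidin-XL665), 665/620 nm ratio, normalised to no-inhibitor and no-enzyme controls.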

[2] = test system: human cervical tumor cell line HeLa (ATCC CCL-2); test: SAC-Formation - Nocodazole-Induced Assay; format: cell-based; details: Homo sapiens, HeLa, 24 h, HeLa cells, nocodazole 0.1 μg/ml together with test compound, decrease of mitotic cells (phospho-histone H3 Ser10)
Outline: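 HeLa cells, plated overnight, were treated 24 h at 37 °C with nocodazole (0.1 μg/ml final) plus test compound (0.005–20 μM, 0.5% DMSO) added at the same time. After fixation, anti-phospho-histone H3 Ser10 and Hoechst staining gave the mitotic cell fraction by imaging. Values came from four-parameter Hill fits.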

Row | pIC50 [1] | pIC50 [2] | SMILES
1 | ≤ 4.70 | 7.21 | Cc1nsc(Nc2cnc3ccccc3n2)c1C(=O)Nc1ccc(OC2CCN(CC(F)(F)F)CC2)nc1 [Example 21, 3-Methyl-5-(quinoxalin-2-ylamino)-N-(6-{[1-(2,2,2-trifluoroethyl)piperidin-4-yl]oxy}-pyridin-3-yl)-1,2-thiazole-4-carboxamide]
2 | ≤ 4.70 | 6.24 | CC(=O)N1CCC(Oc2ccc(NC(=O)c3c(C)nsc3Nc3cnc4ccccc4n3)cn2)CC1 [Example 22, N-{6-[(1-acetylpiperidin-4-yl)oxy]pyridin-3-yl}-3-methyl-5-(quinoxalin-2-ylamino)-1,2-thiazole-4-carboxamide]
3 | ≤ 4.70 | 7.31 | Cc1nsc(Nc2cc(C#N)ccn2)c1C(=O)Nc1ccc(OC2CCN(C(=O)OC(C)(C)C)CC2)nc1 [Example 23, tert-Butyl 4-({5-[({5-[(4-cyanopyridin-2-yl)amino]-3-methyl-1,2-thiazol-4-yl}-carbonyl)amino]pyridin-2-yl}oxy)piperidine-1-carboxylate]
4 | ≤ 4.70 | 4.70 | Cc1nsc(Nc2cc(C#N)ccn2)c1C(=O)Nc1ccc(OC2CCNCC2)nc1 [Example 24, 5-[(4-Cyanopyridin-2-yl)amino]-3-methyl-N-[6-(piperidin-4-yloxy)pyridin-3-yl]-1,2-thiazole-4-carboxamide]
5 | ≤ 4.70 | 6.82 | Cc1nsc(Nc2ccc(C#N)cn2)c1C(=O)Nc1ccc(OC2CCN(C(=O)OC(C)(C)C)CC2)nc1 [Example 27, tert-Butyl 4-({5-[({5-[(5-cyanopyridin-2-yl)amino]-3-methyl-1,2-thiazol-4-yl}-carbonyl)amino]pyridin-2-yl}oxy)piperidine-1-carboxylate]
6 | < 4.70 | 5.55 | Cc1nsc(Nc2cc(C#N)ccn2)c1C(=O)Nc1cccc(C(=O)NC(C)C)c1 [Example 254, 5-[(4-cyanopyridin-2-yl)amino]-N-[3-(isopropylcarbamoyl)phenyl]-3-methyl-1,2-thiazole-4-carboxamide]
7 | < 4.70 | 5.80 | COC(=O)CCCc1ccc(NC(=O)c2c(C)nsc2Nc2cc(C#N)ccn2)cc1 [Example 256, methyl 4-{4-[({5-[(4-cyanopyridin-2-yl)amino]-3-methyl-1,2-thiazol-4-yl}carbonyl)amino]phenyl}butanoate]
8 | < 4.70 | 6.22 | Cc1nsc(Nc2cnc3ccccc3n2)c1C(=O)Nc1cccc(NS(=O)(=O)C2CCN(C(=O)OC(C)(C)C)CC2)c1 [Example 258, tert-butyl 4-{[3-({[3-methyl-5-(quinoxalin-2-ylamino)-1,2-thiazol-4-yl]carbonyl}amino)phenyl]sulfamoyl} piperidine-1-carboxylate]
9 | < 4.70 | 6.72 | Cc1nsc(Nc2cnc(C(F)(F)F)cn2)c1C(=O)Nc1ccc(F)c(OC2CCN(CC(F)F)CC2)c1 [Example 265, N-(3-{[1-(2,2-difluoroethyl)piperidin-4-yl]oxy}-4-fluorophenyl)-3-methyl-5-{[5-(trifluoromethyl)pyrazin-2-yl]amino}-1,2-thiazole-4-carboxamide]
10 |  | 5.48 | Cc1nsc(Nc2cnc3ccccc3n2)c1C(=O)Nc1cccc(NS(=O)(=O)C2CCN(CCC(F)(F)F)CC2)c1 [Example 283, 3-methyl-5-(quinoxalin-2-ylamino)-N-[3-({[1-(3,3,3-trifluoropropyl)piperidin-4-yl]sulfonyl}amino)phenyl]-1,2-thiazole-4-carboxamide]
11 |  | 5.72 | Cc1nsc(Nc2cnc3ccccc3n2)c1C(=O)Nc1cccc(NS(=O)(=O)C2CCN(CC(F)(F)F)C2)c1 (centres unmarked) [Example 289, 3-methyl-5-(quinoxalin-2-ylamino)-N-[3-({[1-(2,2,2-trifluoroethyl)pyrrolidin-3-yl]sulfonyl}amino)phenyl]-1,2-thiazole-4-carboxamide]

The remaining lines, values behind:

Row | SMILES | pIC50 [1] | pIC50 [2]
12 | Cc1nsc(Nc2cc(C#N)ccn2)c1C(=O)Nc1ccc(OC2CCN(CC(F)(F)F)CC2)nc1 [Example 25, 5-[(4-Cyanopyridin-2-yl)amino]-3-methyl-N-(6-{[1-(2,2,2-trifluoroethyl)piperidin-4-yl]oxy}pyridin-3-yl)-1,2-thiazole-4-carboxamide] | ≤ 4.70 | 7.80
13 | CCN1CCC(Oc2ccc(NC(=O)c3c(C)nsc3Nc3cc(C#N)ccn3)cn2)CC1 [Example 26, 5-[(4-Cyanopyridin-2-yl)amino]-N-{6-[(1-ethylpiperidin-4-yl)oxy]pyridin-3-yl}-3-methyl-1,2-thiazole-4-carboxamide] | ≤ 4.70 | 5.62
14 | Cc1nsc(Nc2cnc3ccccc3n2)c1C(=O)Nc1ccc(N2CCN(C(=O)OC(C)(C)C)CC2)nc1 [Example 248, tert-butyl 4-[5-({[3-methyl-5-(quinoxalin-2-ylamino)-1,2-thiazol-4-yl]carbonyl}amino)pyridin-2-yl]piperazine-1-carboxylate] | < 4.70 | 6.14
15 | Cc1nsc(Nc2cnc3ccccc3n2)c1C(=O)Nc1cccc(C(=O)NC2CC2)c1 [Example 249, N-[3-(cyclopropylcarbamoyl)phenyl]-3-methyl-5-(quinoxalin-2-ylamino)-1,2-thiazole-4-carboxamide] | < 4.70 | 6.02
16 | Cc1nsc(Nc2ccc(C#N)cn2)c1C(=O)Nc1cccc(C(=O)NC2CC2)c1 [Example 250, 5-[(5-cyanopyridin-2-yl)amino]-N-[3-(cyclopropylcarbamoyl)phenyl]-3-methyl-1,2-thiazole-4-carboxamide] | < 4.70 | 6.10
17 | CCNC(=O)c1cccc(NC(=O)c2c(C)nsc2Nc2cnc3ccccc3n2)c1 [Example 251, N-[3-(ethylcarbamoyl)phenyl]-3-methyl-5-(quinoxalin-2-ylamino)-1,2-thiazole-4-carboxamide] | < 4.70 | 5.82
18 | CCNC(=O)c1cccc(NC(=O)c2c(C)nsc2Nc2ccc(C#N)cn2)c1 [Example 252, 5-[(5-cyanopyridin-2-yl)amino]-N-[3-(ethylcarbamoyl)phenyl]-3-methyl-1,2-thiazole-4-carboxamide] | < 4.70 | 6.28
19 | Cc1nsc(Nc2cnc3ccccc3n2)c1C(=O)Nc1cccc(C(=O)NC(C)C)c1 [Example 253, N-[3-(isopropylcarbamoyl)phenyl]-3-methyl-5-(quinoxalin-2-ylamino)-1,2-thiazole-4-carboxamide] | < 4.70 | 6.08
20 | Cc1nsc(Nc2ccc(C#N)cn2)c1C(=O)Nc1cccc(C(=O)NC(C)C)c1 [Example 255, 5-[(5-cyanopyridin-2-yl)amino]-N-[3-(isopropylcarbamoyl)phenyl]-3-methyl-1,2-thiazole-4-carboxamide] | < 4.70 | 5.43
21 | COC(=O)CCc1cccc(NC(=O)c2c(C)nsc2Nc2cnc3ccccc3n2)c1 [Example 257, methyl 3-[3-({[3-methyl-5-(quinoxalin-2-ylamino)-1,2-thiazol-4-yl]carbonyl}amino)phenyl]propanoate] | < 4.70 | 6.26
22 | Cc1nsc(Nc2cnc(C(F)(F)F)cn2)c1C(=O)Nc1ccc(C(=O)NC2CCN(CC(F)F)CC2)cc1 [Example 259, N-(4-{[1-(2,2-difluoroethyl)piperidin-4-yl]carbamoyl}phenyl)-3-methyl-5-{[5-(trifluoromethyl)pyrazin-2-yl]amino}-1,2-thiazole-4-carboxamide] | < 4.70 | 6.40
23 | Cc1nsc(Nc2cnc(C(F)(F)F)cn2)c1C(=O)Nc1ccc(C(=O)N2CCN(CC(F)(F)F)CC2)cc1 [Example 260, 3-methyl-N-(4-{[4-(2,2,2-trifluoroethyl)piperazin-1-yl]carbonyl}phenyl)-5-{[5-(trifluoromethyl)pyrazin-2-yl]amino}-1,2-thiazole-4-carboxamide] | < 4.70 | 7.06
24 | CCN1CCN(C(=O)c2ccc(NC(=O)c3c(C)nsc3Nc3cnc(C(F)(F)F)cn3)cc2)CC1 [Example 261, N-{4-[(4-ethylpiperazin-1-yl)carbonyl]phenyl}-3-methyl-5-{[5-(trifluoromethyl)pyrazin-2-yl]amino}-1,2-thiazole-4-carboxamide] | < 4.70 | 5.96
25 | Cc1nsc(Nc2cnc(C(F)(F)F)cn2)c1C(=O)Nc1ccc(C(=O)N2CCN(C)CC2)cc1 [Example 262, 3-methyl-N-{4-[(4-methylpiperazin-1 yl)carbonyl]phenyl}-5-{[5-(trifluoromethyl)pyrazin-2-yl]amino}-1,2-thiazole-4-carboxamide] | < 4.70 | 6.59
26 | Cc1nsc(Nc2cc(C#N)ccn2)c1C(=O)Nc1ccc(OC2CCN(CC(F)F)CC2)nc1 [Example 263, 5-[(4-cyanopyridin-2-yl)amino]-N-(6-{[1-(2,2-difluoroethyl)piperidin-4-yl]oxy}pyridin-3-yl)-3-methyl-1,2-thiazole-4-carboxamide] | < 4.70 | 6.04
27 | Cc1nsc(Nc2cnc(C(F)(F)F)cn2)c1C(=O)Nc1ccc(F)c(OC2CCN(CC(F)(F)F)CC2)c1 [Example 264, N-(4-fluoro-3-{[1-(2,2,2-trifluoroethyl)piperidin-4-yl]oxy}phenyl)-3-methyl-5-{[5-(trifluoromethyl)pyrazin-2-yl]amino}-1,2-thiazole-4-carboxamide] | < 4.70 | 7.46
28 | Cc1nsc(Nc2cnc3ccccc3n2)c1C(=O)Nc1cccc(NS(=O)(=O)C2CN(CC(F)F)C2)c1 [Example 286, N-[3-({[1-(2,2-difluoroethyl)azetidin-3-yl]sulfonyl}amino)phenyl]-3-methyl-5-(quinoxalin-2-ylamino)-1,2-thiazole-4-carboxamide] |  | 5.39
